Test results as given in article PMC6211260 (Journal of Enzyme Inhibition and Medicinal Chemistry, 2018).
Read-outs that look alike come from different tables or passages of the source.

How the values were obtained:
Format in all cases: cell-based
[1] = system: Leukaemia cell lines; assay: NCI five-dose testing, subpanel mean; details: subpanel I: Leukaemia
Method: (§1) Screening against the cancer cell lines was carried out at the National Cancer Institute (NCI, Bethesda, Maryland, USA) applying the standard protocol of the NCI[22].

[2] = system: ovarian cancer cell lines; assay: NCI five-dose testing, subpanel mean; details: subpanel VI: ovarian cancer
Method: as §1

[3] = system: renal cancer cell lines; assay: NCI five-dose testing, subpanel mean; details: subpanel VII: renal cancer
Method: as §1

[4] = system: prostate cancer cell lines; assay: NCI five-dose testing, subpanel mean; details: subpanel VIII: prostate cancer
Method: as §1

[5] = system: CNS cancer cell lines; assay: NCI five-dose testing, subpanel mean; details: subpanel IV: CNS cancer
Method: as §1

[6] = system: colon cancer cell lines; assay: NCI five-dose testing, subpanel mean; details: subpanel III: colon cancer
Method: as §1

[7] = system: breast cancer cell lines; assay: NCI five-dose testing, subpanel mean; details: subpanel IX: breast cancer
Method: as §1

[8] = system: non-small cell lung cancer cell lines; assay: NCI five-dose testing, subpanel mean; details: subpanel II: non-small cell lung cancer
Method: as §1

[9] = system: melanoma cell lines; assay: NCI five-dose testing, subpanel mean; details: subpanel V: melanoma
Method: as §1

[10] = system: PC-3 prostate cancer cell line; assay: NCI five-dose testing; details: for IC50: read-out: IC50; for IC (TGI): read-out: TGI (total growth inhibition concentration)
Method: as §1

[11] = system: HOP-92 non-small cell lung cancer cell line; assay: NCI five-dose testing; details: for IC (TGI): read-out: TGI (total growth inhibition concentration)
Method: as §1

[12] = system: HT-29 colon cancer cell line; assay: NCI five-dose testing; details: for IC50: read-out: IC50; for IC (TGI): read-out: TGI (total growth inhibition concentration)
Method: as §1

[13] = system: SK-MEL-5 melanoma cell line; assay: NCI five-dose testing; details: for IC (TGI): read-out: TGI (total growth inhibition concentration)
Method: as §1

[14] = system: U251 CNS cancer cell line; assay: NCI five-dose testing; details: for IC50: read-out: IC50; for IC (TGI): read-out: TGI (total growth inhibition concentration)
Method: as §1

[15] = system: K-562 leukaemia cell line; assay: NCI five-dose testing; details: for IC (TGI): read-out: TGI (total growth inhibition concentration)
Method: as §1

[16] = system: OVCAR-4 ovarian cancer cell line; assay: NCI five-dose testing; details: for IC (TGI): read-out: TGI (total growth inhibition concentration)
Method: as §1

[17] = system: MDA-MB-468 breast cancer cell line; assay: NCI five-dose testing; details: for IC (TGI): read-out: TGI (total growth inhibition concentration)
Method: as §1

[18] = system: A498 renal cancer cell line; assay: NCI five-dose testing; details: for IC (TGI): read-out: TGI (total growth inhibition concentration)
Method: as §1

`COc1cccc(-c2nn(-c3ccccc3)cc2-c2ccnc(NCCNS(=O)(=O)c3ccc(Cl)cc3)c2)c1` [Compound 1c, 4-Chloro-N-(2-((4-(3-(3-methoxyphenyl)-1-phenyl-1H-pyrazol-4-yl)pyridin-2-yl)amino)ethyl) benzenesulfonamide] was tested. Which IC50 [1] did it give?
Its IC50 is 2890 nM.

And the IC50 [2]?
Its IC50 is 5.23 µM.

What about the IC50 [3] of the same molecule?
The IC50 was 4.79 µM.

What about the IC50 [4] of the same molecule?
Its IC50 is 4.99 µM.

What about the IC50 [5] of the same molecule?
Its IC50 is 6.33 µM.

And the IC50 [6]?
Its IC50 is 4.08 µM.

What about the IC50 [7] of the same molecule?
The IC50 was 3790 nM.

And the IC50 [8]?
The IC50 was 6.02 µM.

And the IC50 [9]?
The IC50 was 4.58 µM.

What about the “LD50 (lethal dose 50)” value ([10]; PC-3) of the same molecule?
Its value is >100 µM.

What about the IC50 ([10]; PC-3) of the same molecule?
Its IC50 is 2440 nM.

And the IC (TGI) ([10]; PC-3)?
Its IC (TGI) is >100 µM.

What about the IC50 ([11]; HOP-92) of the same molecule?
Its IC50 is 2460 nM.

And the “LD50 (lethal dose 50)” value ([11]; HOP-92)?
Its value is >100 µM.

What about the IC (TGI) ([11]; HOP-92) of the same molecule?
Its IC (TGI) is 9.4 µM.

And the “LD50 (lethal dose 50)” value ([12]; HT-29)?
Its value is >100 µM.

And the IC50 ([12]; HT-29)?
The IC50 was 3370 nM.

And the IC (TGI) ([12]; HT-29)?
The IC (TGI) was 11.3 µM.

What about the IC50 ([13]; SK-MEL-5) of the same molecule?
The IC50 was 1950 nM.

What about the “LD50 (lethal dose 50)” value ([13]; SK-MEL-5) of the same molecule?
The value was 7.7 µM.

And the IC (TGI) ([13]; SK-MEL-5)?
The IC (TGI) was 3.8 µM.

What about the “LD50 (lethal dose 50)” value ([14]; U251) of the same molecule?
The value was >100 µM.

And the IC50 ([14]; U251)?
The IC50 was 5.89 µM.

What about the IC (TGI) ([14]; U251) of the same molecule?
Its IC (TGI) is >100 µM.

What about the IC50 ([15]; K-562) of the same molecule?
The IC50 was 3.73 µM.

And the “LD50 (lethal dose 50)” value ([15]; K-562)?
The value was >100 µM.

What about the IC (TGI) ([15]; K-562) of the same molecule?
The IC (TGI) was >100 µM.

What about the IC50 ([16]; OVCAR-4) of the same molecule?
Its IC50 is 4.15 µM.

What about the “LD50 (lethal dose 50)” value ([16]; OVCAR-4) of the same molecule?
The value was >100 µM.

And the IC (TGI) ([16]; OVCAR-4)?
Its IC (TGI) is >100 µM.

And the IC50 ([17]; MDA-MB-468)?
Its IC50 is 3900 nM.

What about the “LD50 (lethal dose 50)” value ([17]; MDA-MB-468) of the same molecule?
The value was >100 µM.

And the IC (TGI) ([17]; MDA-MB-468)?
Its IC (TGI) is >100 µM.

What about the IC50 ([18]; A498) of the same molecule?
Its IC50 is 4.56 µM.

And the “LD50 (lethal dose 50)” value ([18]; A498)?
The value was >100 µM.

And the IC (TGI) ([18]; A498)?
Its IC (TGI) is >100 µM.

`O=S(=O)(NCCNc1cc(-c2cn(-c3ccccc3)nc2-c2cccc(O)c2)ccn1)c1ccc(C(F)(F)F)cc1` [Compound 1o, N-(2-((4-(3-(3-Hydroxyphenyl)-1-phenyl-1H-pyrazol-4-yl)pyridin-2-yl)amino)ethyl)-4-(trifluoromethyl)benzenesulfonamide] was tested. Which IC50 [1] did it give?
Its IC50 is 2340 nM.

What about the IC50 [2] of the same molecule?
The IC50 was 3.12 µM.

And the IC50 [3]?
The IC50 was 2.45 µM.

And the IC50 [4]?
The IC50 was 3.45 µM.

What about the IC50 [5] of the same molecule?
Its IC50 is 2.67 µM.

What about the IC50 [6] of the same molecule?
The IC50 was 2.38 µM.

And the IC50 [7]?
Its IC50 is 2110 nM.

And the IC50 [8]?
The IC50 was 3.03 µM.

What about the IC50 [9] of the same molecule?
Its IC50 is 2.37 µM.

And the LC50 (lethal concentration 50) ([10]; Homo sapiens, PC-3, read-out: LD50 (lethal dose 50))?
The LC50 (lethal concentration 50) was 93.4 µM.

What about the IC50 ([10]; Homo sapiens, PC-3) of the same molecule?
The IC50 was 2470 nM.

And the IC (TGI) ([10]; Homo sapiens, PC-3)?
Its IC (TGI) is 10.9 µM.

And the IC50 ([11]; Homo sapiens, HOP-92)?
The IC50 was 1970 nM.

What about the IC (TGI) ([11]; Homo sapiens, HOP-92, HOP-92) of the same molecule?
Its IC (TGI) is 6.2 µM.

And the LD50 (lethal dose 50) ([11]; Homo sapiens, HOP-92, read-out: LD50 (lethal dose 50))?
Its LD50 (lethal dose 50) is 52 µM.

What about the CC50 ([12]; Homo sapiens, HT-29, read-out: LD50 (lethal dose 50)) of the same molecule?
The CC50 was 35.1 µM.

What about the IC50 ([12]; Homo sapiens, HT-29) of the same molecule?
Its IC50 is 2040 nM.

What about the IC (TGI) ([12]; Homo sapiens, HT-29) of the same molecule?
The IC (TGI) was 5.4 µM.

What about the IC50 ([13]; Homo sapiens, SK-MEL-5) of the same molecule?
The IC50 was 1780 nM.

And the LC50 (lethal concentration 50) ([13]; Homo sapiens, SK-MEL-5, read-out: LD50 (lethal dose 50))?
The LC50 (lethal concentration 50) was 6.3 µM.

And the IC (TGI) ([13]; Homo sapiens, SK-MEL-5)?
The IC (TGI) was 3.3 µM.

And the CC50 ([14]; Homo sapiens, U-251, read-out: LD50 (lethal dose 50))?
The CC50 was 44.1 µM.

What about the IC50 ([14]; Homo sapiens, U-251, U251) of the same molecule?
Its IC50 is 2.65 µM.

And the IC (TGI) ([14]; Homo sapiens, U-251, U251)?
Its IC (TGI) is 7.2 µM.

And the CC50 ([15]; Homo sapiens, K562, read-out: LD50 (lethal dose 50))?
The CC50 was > 100 µM.

What about the IC50 ([15]; Homo sapiens, K562, K-562) of the same molecule?
Its IC50 is 2.48 µM.

And the IC (TGI) ([15]; Homo sapiens, K562, K-562)?
Its IC (TGI) is 6.5 µM.

And the IC50 ([16]; Homo sapiens, OVCAR-4)?
The IC50 was 2.85 µM.

And the LC50 (lethal concentration 50) ([16]; Homo sapiens, OVCAR-4, read-out: LD50 (lethal dose 50))?
The LC50 (lethal concentration 50) was 81.2 µM.

And the IC (TGI) ([16]; Homo sapiens, OVCAR-4)?
The IC (TGI) was 16.9 µM.

What about the IC50 ([17]; Homo sapiens, MDA-MB-468) of the same molecule?
Its IC50 is 2050 nM.

What about the CC50 ([17]; Homo sapiens, MDA-MB-468, read-out: LD50 (lethal dose 50)) of the same molecule?
Its CC50 is > 100 µM.

What about the IC (TGI) ([17]; Homo sapiens, MDA-MB-468) of the same molecule?
Its IC (TGI) is 5.02 µM.

And the IC50 ([18]; Homo sapiens, A498)?
The IC50 was 1.71 µM.

And the LC50 (lethal concentration 50%) ([18]; Homo sapiens, A498, read-out: LD50 (lethal dose 50))?
The LC50 (lethal concentration 50%) was 41.4 µM.

And the IC (TGI) ([18]; Homo sapiens, A498)?
Its IC (TGI) is 14.5 µM.
